Measurements from ChEMBL document CHEMBL5252581, “Using a Bioactive Eremophila-Derived Serrulatane Scaffold to Generate a Unique Carbamate Library for Anti-infective Evaluations” (J Nat Prod, 2023).

Experiments:
Plasmodium falciparum [1] = experiment: Antimalarial activity against chloroquine sensitive Plasmodium falciparum 3D7 assessed as parasite growth inhibition at 80 uM incubated for 72 hrs by DAPI staining method; assay type: functional
Haemonchus contortus [2] = experiment: Anthelmintic activity against Haemonchus contortus assessed as induction of skinny phenotype at 50 uM measured at 168 hrs by microscope based analysis; assay type: functional
Haemonchus contortus [3] = experiment: Anthelmintic activity against Haemonchus contortus assessed as inhibition of L4 development at 50 uM measured at 168 hrs by microscope based analysis relative to control; assay type: functional
Haemonchus contortus [4] = experiment: Anthelmintic activity against third stage larvae of Haemonchus contortus assessed as reduction in larval motility measured at 168 hrs by microscope based analysis; assay type: functional, organism-based
Haemonchus contortus [5] = experiment: Anthelmintic activity against third stage larvae of Haemonchus contortus assessed as reduction in larval motility at 50 uM measured at 168 hrs by microscope based analysis relative to control; assay type: functional; design: scale not given: the % may be the effect or the level left
Plasmodium falciparum [6] = experiment: Antimalarial activity against multidrug resistant Plasmodium falciparum Dd2 assessed as parasite growth inhibition at 80 uM incubated for 72 hrs by DAPI staining method; assay type: functional
[7] = Cytotoxicity against HEK293 cells assessed as inhibition of cell growth at 80 uM incubated for 72 hrs by alamar blue dye based fluorescence assay relative to control; assay type: toxicity; details: human
[8] = test system: Human immunodeficiency virus 1; experiment: Reversal of HIV-1 latency infected in GFP-fused human J-Lat 10.6 cells assessed as inhibition of 160 nM PMA-induced HIV production at 100 ug/ml incubated for 24 hrs by flow cytometry analysis relative to control; assay type: functional; details: Human immunodeficiency virus 1, J-Lat 10.6
[9] = Selectivity index, ratio of IC50 for cytotoxicity against HEK293 cells to IC50 for antimalarial activity against multidrug resistant Plasmodium falciparum Dd2; assay type: toxicity, cell-based; details: human, read-out: Ratio IC50
[10] = Selectivity index, ratio of IC50 for cytotoxicity against HEK293 cells to IC50 for antimalarial activity against chloroquine sensitive Plasmodium falciparum 3D7; assay type: toxicity, cell-based; details: human, read-out: Ratio IC50
[11] = Resistance index, ratio of IC50 for antimalarial activity against multidrug resistant Plasmodium falciparum Dd2 to IC50 for antimalarial activity against chloroquine sensitive Plasmodium falciparum 3D7; assay type: toxicity
Plasmodium falciparum [12] = experiment: Antimalarial activity against chloroquine sensitive Plasmodium falciparum 3D7 assessed as parasite growth inhibition incubated for 72 hrs by DAPI staining method; assay type: functional, organism-based; details: 3D7, 72 h
Plasmodium falciparum [13] = experiment: Antimalarial activity against multidrug resistant Plasmodium falciparum Dd2 assessed as parasite growth inhibition incubated for 72 hrs by DAPI staining method; assay type: functional, organism-based; details: Dd2, 72 h
[14] = test system: Human immunodeficiency virus 1; experiment: Reversal of HIV-1 latency infected in GFP-fused human J-Lat 10.6 cells assessed as inhibition of 160 nM PMA-induced HIV production incubated for 24 hrs by flow cytometry analysis; assay type: functional, organism-based; details: Human immunodeficiency virus 1, J-Lat 10.6, 24 h
Haemonchus contortus [15] = experiment: Anthelmintic activity against fourth stage larvae of Haemonchus contortus assessed as induction of skinny phenotype at 100 uM measured after 7 days relative to control; assay type: functional; details: time 7 day
Haemonchus contortus [16] = experiment: Anthelmintic activity against fourth stage larvae of Haemonchus contortus assessed as induction of skinny phenotype measured after 7 days; assay type: functional, organism-based; details: 168 h
[17] = test system: Human immunodeficiency virus 1; experiment: Reversal of HIV-1 latency infected in GFP-fused human J-Lat 10.6 cells assessed as inhibition of 50 nM PMA-induced HIV production by flow cytometry analysis; assay type: functional, organism-based; details: Human immunodeficiency virus 1, J-Lat 10.6
Haemonchus contortus [18] = experiment: Anthelmintic activity against fourth stage larvae of Haemonchus contortus assessed as midbody width of L4 larvae measured after 7 days by microscopic analysis (reference value: 16.3+/-1.5 uM); assay type: functional; details: time 7 day
[19] = Cytotoxicity against HEK293 cells assessed as inhibition of cell growth incubated for 72 hrs by alamar blue dye based fluorescence assay; assay type: toxicity; details: human

Row | Structure (SMILES) | inhibition at 80 µM (Plasmodium falciparum [1]) | Activity (Haemonchus contortus [2]) | inhibition at 50 µM (Haemonchus contortus [3]) | IC50 (Haemonchus contortus [4]) | Activity (Haemonchus contortus [5]) | inhibition at 80 µM (Plasmodium falciparum [6]) | inhibition at 72 h, 80 µM [7] | inhibition at 100 µg/mL [8] | selectivity ratio [9] | selectivity ratio [10] | Ratio IC50 [11] | IC50 (Plasmodium falciparum [12]) | IC50 (Plasmodium falciparum [13]) | EC50 [14] | Activity (Haemonchus contortus [15]) | IC50 (Haemonchus contortus [16]) | EC50 [17] | Activity (Haemonchus contortus [18]) | IC50 at 72 h [19]
1 | CC(C)=CCC[C@H](C)[C@H]1c2cc(C(=O)O)c(O)c(O)c2[C@H](C)C[C@H]1O | < 41% | 0% | 4% | 3.6 µM | 16.9% | < 41% | 8% | < 10% |  |  |  |  |  |  |  |  |  |  | 
2 | COC(=O)c1cc2c(c(OC)c1OC)[C@H](C)C[C@@H](OC(=O)Nc1ccccc1)[C@H]2[C@@H](C)CCC=C(C)C |  | 0% | 4% | > 50 µM | 9.6% | > 41% | 47% | 29.3% | 6.3 | 6.9 | 1.1 | 11.6 µM |  |  |  |  |  |  | 
3 | COC(=O)c1cc2c(c(OC)c1OC)[C@H](C)C[C@@H](OC(=O)Nc1ccc(C)cc1)[C@H]2[C@@H](C)CCC=C(C)C |  | 0% | 2.3% | 7.1 µM | 12.9% |  | 12% | 36.8% | 6.2 | 6.6 | 1.1 | 12.2 µM | 12.9 µM |  |  |  |  |  | 
4 | COC(=O)c1cc2c(c(OC)c1OC)[C@H](C)C[C@@H](OC(=O)NCc1ccccc1)[C@H]2[C@@H](C)CCC=C(C)C | > 41% | 0% | -4.4% | 0.4 µM | 44.7% | > 41% | 24% | < 10% |  |  |  |  |  |  |  |  |  |  | 
5 | COC(=O)c1cc2c(c(OC)c1OC)[C@H](C)C[C@@H](O)[C@H]2[C@@H](C)CCC=C(C)C | > 41% | 59.1% | 5.3% | 4.9 µM | 28.3% | > 41% | 4% | 66.5% |  |  |  |  |  | 146 µM | 78.4% | 13.5 µM | 38.3 µM | 8.8 µM | 
6 | COC(=O)c1cc2c(c(OC)c1OC)[C@H](C)C[C@@H](OC(=O)Nc1ccc(C#N)cc1)[C@H]2[C@@H](C)CCC=C(C)C | < 41% | 1.7% | 12% | 9 µM | 6.8% | < 41% | 2% | 59% |  |  |  |  |  | 96.7 µM |  |  |  |  | 
7 | COC(=O)c1cc2c(c(OC)c1OC)[C@H](C)C[C@@H](OC(=O)NS(=O)(=O)c1ccc(C)cc1)[C@H]2[C@@H](C)CCC=C(C)C | > 41% | 67.5% | 21.7% | 6.2 µM | 15.6% | > 41% | 11% | 20.7% |  |  |  |  |  |  |  |  |  |  | 
8 | COC(=O)c1cc2c(c(OC)c1OC)[C@H](C)C[C@@H](OC(=O)Nc1ccc(Cl)cc1)[C@H]2[C@@H](C)CCC=C(C)C |  | 0% | 2.5% | 1.8 µM | 26.4% |  | 3.1% | 31.7% | 6.1 | 6.9 |  | 11.7 µM | 13.2 µM |  |  |  |  |  | 
9 | COC(=O)c1cc2c(c(OC)c1OC)[C@H](C)C[C@@H](OC(=O)Nc1ccc(F)cc1)[C@H]2[C@@H](C)CCC=C(C)C |  | 0% | 3.2% | 31.6 µM | 36.2% |  | 25% | 28.7% | 7.4 | 9.2 | 1.2 | 8.7 µM | 10.8 µM |  |  |  |  |  | 
10 | COC(=O)c1cc2c(c(OC)c1OC)[C@H](C)C[C@@H](OC(=O)Nc1cccc(Cl)c1)[C@H]2[C@@H](C)CCC=C(C)C |  | 0% | 7.1% | 1.6 µM | 39.1% |  | 42% | 37.2% | 8.7 | 8.8 | 1 | 9.1 µM | 9.2 µM |  |  |  |  |  | 
11 | COC(=O)c1cc2c(c(OC)c1OC)[C@H](C)C[C@@H](OC(=O)Nc1ccc(OC)cc1)[C@H]2[C@@H](C)CCC=C(C)C |  | 0% | 2% | > 50 µM | 18.3% |  | 26% | 22.9% | 7.9 | 8.6 | 1.1 | 9.3 µM | 10.1 µM |  |  |  |  |  | 
12 | COC(=O)c1cc2c(c(OC)c1OC)[C@H](C)C[C@@H](OC(=O)Nc1cc(C(F)(F)F)cc(C(F)(F)F)c1)[C@H]2[C@@H](C)CCC=C(C)C |  | 0% | 3.6% | 0.8 µM | 16.9% |  | 34% | 39.1% | 6.9 | 17.5 | 2.5 | 4.6 µM | 11.6 µM |  |  |  |  |  | 
13 | COC(=O)c1cc2c(c(OC)c1OC)[C@H](C)C[C@@H](OC(=O)Nc1ccc([N+](=O)[O-])cc1)[C@H]2[C@@H](C)CCC=C(C)C |  | 60% | 4.8% | 6.4 µM | 30.4% |  | 52% | 43.5% | 7.5 | 5 | 1.3 | 7.6 µM | 10.6 µM |  |  |  |  |  | 
14 | C[C@H]1[C@@H](O)O[C@@H]2O[C@@]3(C)CC[C@H]4[C@H](C)CC[C@@H]1[C@@]24OO3 [ARTENIMOL] |  |  |  |  |  |  |  |  | > 3080 | > 6680 | 2.2 |  |  |  |  |  |  |  | > 4 µM
15 | CCN(CC)CCCC(C)Nc1ccnc2cc(Cl)ccc12 (stereo not given) [CHLOROQUINE] |  |  |  |  |  |  |  |  |  |  |  |  |  |  |  |  |  |  | > 10 µM
16 | C[C@](C#N)(COc1cc(C#N)ccc1C(F)(F)F)NC(=O)c1ccc(SC(F)(F)F)cc1 [MONEPANTEL] |  | 0% | 98% | 0.2 µM | 99.2% |  |  |  |  |  |  |  |  |  |  |  |  |  | 
17 | CO/N=C1\C[C@]2(C[C@@H]3C[C@@H](C/C=C(\C)C[C@@H](C)/C=C/C=C4\CO[C@@H]5[C@H](O)C(C)=C[C@@H](C(=O)O3)[C@]45O)O2)O[C@H](/C(C)=C/C(C)C)[C@H]1C [MOXIDECTIN] |  | 0% | 89.7% | 3 µM | 88.2% |  |  |  |  |  |  |  |  |  |  |  |  |  | 
18 | COc1ccc(C[C@H](N)C(=O)N[C@H]2[C@@H](O)[C@H](n3cnc4c(N(C)C)ncnc43)O[C@@H]2CO)cc1 [PUROMYCIN] |  |  |  |  |  |  |  |  | 8.2 | 15.5 | 1.9 | 0.0429 µM | 0.0814 µM |  |  |  |  |  | 0.664 µM
19 | CCc1nc(N)nc(N)c1-c1ccc(Cl)cc1 [PYRIMETHAMINE] |  |  |  |  |  |  |  |  |  | > 1010 | > 1010 |  |  |  |  |  |  |  | > 10 µM
